Experiment [1] can be described thus: Steady-state fluorescence anisotropy of DPH-doped liposomes, POPC. Type of experiment: physicochemical. Conditions: 5 min incubation at RT. From the text:
(§1) The technique used in the present study was steady-state fluorescence anisotropy spectroscopy (fluorescence anisotropy or anisotropy in the following text). The technique was utilised to detect organisational changes within the lipid bilayer using a fluorescent 1,6-diphenyl-1,3,5-hexatriene (DPH) probe. DPH is advantageous in the present application due to its high quantum yield and its ability to indicate subtle changes in the lipid acyl chain organisation. For general reviews on the technique, see Shinitzky & Barenholz[18] and Lentz[19]. The rod-like hydrophobic probe is rotating within the bilayer structure by Brownian motion and it is located between the hydrophobic acyl chains of the lipids. When the probe-containing liposomes are illuminated with UV-light at a fixed wavelength and a fixed level of polarized light, the probe is first excited and subsequently emits light that is partly depolarized, due to the molecular rotations of the probe. This depolarization can be measured as a numerical value of anisotropy (r), as shown by Eq. 1.1 r=I||−I⊥/IT where I|| and I⊥ are the intensities of emitted light parallel and perpendicular to the plane of excitation, respectively. IT is the total intensity of emitted light.
(§2) A reference anisotropy value for each pure liposome was determined daily. This was performed in order to normalise the liposome batch-to-batch and liposome-aging-dependent variation of the anisotropy values. The anisotropy was measured ten times and the mean ± standard deviation was calculated. Subsequently, the pure liposomes and the compounds under investigation were mixed and incubated at room temperature for 5 min, before measuring the anisotropy.
(§3) The lipids and the DPH probe were dissolved in chloroform as stock solutions and the stocks were mixed to give the target molar proportions for each liposome composition (Table 2). After mixing the chloroform lipid stocks, the lipid mixture was dried as a thin film on test tube walls by evaporating the chloroform using a flow of air, until no solvent was visible. The dried thin film of lipids was kept under vacuum for at least 12 h in a desiccator, in order to remove any traces of solvent. Ultra-pure water was added to reach the target lipid concentration of 4.0 mM. […] The aqueous mixture of DPH, lipids and water were incubated under agitation for 60 min at 65 °C and 75 °C to form the non-cholesterol-containing and cholesterol-containing multilamellar liposomes, respectively. Subsequently, the 4.0 mM liposome stock dispersions were extruded through 100 nm pore-size polycarbonate filters 19 times using an Avanti mini-extruder (Avanti Polar Lipids, Alabaster, AL, USA) in order to obtain unilamellar liposomes.
(§4) The fluorescence anisotropy values were measured using a Horiba Jobin Yvon (Northampton, UK) FluoroMax-4 spectrofluorometer, in L-format. The emission and the excitation […] were always set to the same value (8–10 nm) so that the photon counts/second at the detector were as recommended by the manufacturer (from 500 000 to 2 000 000 counts/second). The excitation and emission wavelengths were 360 nm and 450 nm, respectively. The measurements were performed at 21 ± 1 °C. Physiological temperature was not used, since the interactions between the living organism (Vibrio Fischeri) also takes place at a non-physiological temperature of 15 °C. The maximum 7 °C difference (15 °C vs. 22 °C) was considered acceptable. A reference value for the pure liposomes was measured daily. […] Both concentrations were selected by trial and error.

The nature of experiment [2]: Steady-state fluorescence anisotropy of DPH-doped liposomes, POPC/POPS 80:20. Type of experiment: physicochemical. Conditions: compound 50 mM, 5 min incubation at RT.
Source text: as §1, §2, §3
as §4, with “daily. In order to study the interaction between the compounds and the liposomes, the pure liposomes were mixed with the compounds so that the final concentration of the lipids was 20 µM and that of the studied compounds was 50 mM.” for “daily.”
(Fluorescence polarisation rises when a labelled molecule tumbles more slowly, as on binding a larger partner.)

The nature of experiment [3]: Steady-state fluorescence anisotropy of DPH-doped liposomes, POPC/Chol 75:25. Type of experiment: physicochemical. Particulars: compound 50 mM, 5 min incubation at RT.
Source text: as §1, §2, §3
as §4, with “daily. In order to study the interaction between the compounds and the liposomes, the pure liposomes were mixed with the compounds so that the final concentration of the lipids was 20 µM and that of the studied compounds was 50 mM.” for “daily.”

A short description of experiment [4]: Steady-state fluorescence anisotropy of DPH-doped liposomes, POPC/POPS/Chol 55:20:25. The experiment is classed as physicochemical. Particulars: compound 50 mM, 5 min incubation at RT.
Source text: as §1, §2, §3
as §4, with “daily. In order to study the interaction between the compounds and the liposomes, the pure liposomes were mixed with the compounds so that the final concentration of the lipids was 20 µM and that of the studied compounds was 50 mM.” for “daily.”

The nature of experiment [5]: Steady-state fluorescence anisotropy, stated over the liposome compositions. Type of experiment: physicochemical. Particulars: four liposome compositions; compound 50 mM.
Source text: as §1
as §2, with “anisotropy. Similar to the reference measurements, the fluorescence anisotropy value after incubation with the ILs was recorded 10 times and the mean ± standard deviation was calculated.” for “anisotropy.”
In this equation r0 is the fundamental anisotropy in the absence of rotational diffusion of the probe, i.e. the maximum anisotropy value achievable using the specific excitation wavelength. At 360 nm r0 = 0.362 for DPH[26]. C(r) relates the molecular shape and the location of the transition dipoles of the rotating probe into one parameter. For spherical probes C(r) = k/v, where k is the Boltzmann constant and v is the effective volume of the probe. Therefore, C(r) would be constant for spherical molecules, but for other shapes, such as the rod-like DPH, the value is dependent on the experimental value of r. In contrast, as experimentally determined by Shinitzky and Barenholtz, the factor C(r)· T· τ = 240 mPa · s is relatively constant at 0–40 °C in membranes doped with DPH probe. T and τ are the temperature during the experiment and lifetime of the excited state, respectively. By substituting r0 = 0.362 and C(r)· T· τ = 240 mPa · s and by further rearranging of the Eqs. 2 and 3 is obtained.3 η=240mPas⋅r/0.362−r
The equation gives the approximate apparent microviscosity (±15%) based on the recorded anisotropy values. The benefit of determining this is the hyperbolic growth of the apparent microviscosity relatively to anisotropy. […]
In order to compare the anisotropy values with the toxicity values in greater detail, the relative change in anisotropy Δr (%) was calculated as given by Eq. 44 Δr=rliposome+toxicant−rpureliposome/rpureliposome where rpure liposome is the daily anisotropy value measured for each pure liposome and r liposome+toxicant the anisotropy value measured after mixing the pure liposome with the compound of interest. […]

Experiment [6] in a line: Steady-state fluorescence anisotropy of DPH-doped liposomes, POPC/POPS 80:20. The experiment is classed as physicochemical. Conditions: compound 0.2 mM, 5 min incubation at RT.
A short description of experiment [7]: Steady-state fluorescence anisotropy of DPH-doped liposomes, POPC/Chol 75:25. The experiment is classed as physicochemical. Conditions: compound 0.2 mM, 5 min incubation at RT.
A short description of experiment [8]: Steady-state fluorescence anisotropy of DPH-doped liposomes, POPC/POPS/Chol 55:20:25. Type of experiment: physicochemical. Particulars: compound 0.2 mM, 5 min incubation at RT.
The conditions of experiment [9]: 333 mM; cited from earlier work.

As to “5-Methyl-1,5,7-triazabicyclo[4.3.0]non-6-enium & 7-Methyl-1,5,7-triazabicyclo[4.3.0]non-5-enium mesylate [[MTBNH][OMs]]”, the “Relative change in anisotropy, Δr” value in experiment [1] (compound 50 mM) is -20%; in experiment [2] it was -26%; in [3], -27%; in experiment [4], -36%.

Take `CC(=O)[O-].[Na+]` [NaOAc, Sodium acetate, reference compound]: the “Relative change in anisotropy, Δr” value in [1] (compound 50 mM) was 11%; in [2] it was 13%; in [3], 12%; in [4], 12%. In addition, the “Δr, range depending on the liposome composition” value (“Δr, range depending” for short) in [5] is on record as 11–13%.

Regarding `CS(=O)(=O)[O-].[Na+]` [NaOMs, Sodium mesylate, reference compound], the “Relative change in anisotropy, Δr” value turned out to be 17% in experiment [1] (compound 50 mM), 11% in experiment [2], 6% in experiment [3] and 13% in experiment [4]. Also, the “Δr, range depending” value in experiment [5] is reported as 6–17%.

`C1CC[N+]2(CC1)CCCC2.CC(=O)[O-]` [[4.5][OAc], 5-Azoniaspiro[4.5]decane acetate]: the “Relative change in anisotropy, Δr” value is reported as 6% in [1] (compound 50 mM), -5% in experiment [2], -1% in [3] and -6% in experiment [4]. Further, in [5], the “Δr, range depending” value is recorded as −6% to +6.

`C1CC[N+]2(CC1)CCCCC2.CC(=O)[O-]` [[5.5][OAc], 6-Azoniaspiro[5.5]undecane acetate]: the “Relative change in anisotropy, Δr” value is reported as -16% in [1] (compound 50 mM), -18% in [2], -18% in [3] and -25% in experiment [4].

Take `C1CCC[N+]2(CC1)CCCCC2.CC(=O)[O-]` [[5.6][OAc], 6-Azoniaspiro[5.6]dodecane acetate]: the “Relative change in anisotropy, Δr” value in experiment [1] (compound 50 mM) is -19%; in experiment [2], -22%; in experiment [3], -21%; in [4] it was -27%.

`C1CCC2=NCCCN2CC1.CS(=O)(=O)O` [[DBUH][OMs], 1,8-Diazabicyclo[5.4.0]undec-7-enium mesylate]: the “Relative change in anisotropy, Δr” value is -24% in [1] (compound 50 mM), -33% in experiment [2], -31% in experiment [3] and -39% in experiment [4].

For the compound `CC(=O)[O-].CCCCCCCC[P+](C)(CCCCCCCC)CCCCCCCC` [[P8881][OAc], Methyltrioctylphosphonium acetate], the “Relative change in anisotropy, Δr” value in [1] (compound 0.2 mM) is -19%; in experiment [6], -36%; in experiment [7], -41%; in experiment [8], -47%.

In the case of `CCN(CC)CC.CS(=O)(=O)O` [[TEAH][OMs], Triethylammonium mesylate], the “Relative change in anisotropy, Δr” value is 7% in experiment [1] (compound 50 mM), -5% in [2], 2% in experiment [3] and -4% in experiment [4]. In experiment [5], the “Δr, range depending” value is given as −5% to +7.

As for `CN(C)C(=N)N(C)C.CS(=O)(=O)O` [[TMGH][OMs], 1,1,3,3-Tetramethylguanidinium mesylate], the “Relative change in anisotropy, Δr” value in experiment [1] (compound 50 mM) came to 11%; in experiment [2], 6%; in experiment [3], 3%; in experiment [4], 5%. Further, the “Δr, range depending” value in experiment [5] was 3–11%.

As to `CCO` [ethanol], the “changes in fluorescence polarisation” value in experiment [9] is on record as below 10%.

The values above are taken from paper PMC6892914, “Interactions of Ionic Liquids and Spirocyclic Compounds with Liposome Model Membranes. A Steady-State Fluorescence Anisotropy Study” (Scientific Reports, 2019).
